A word on the IC50: it is the midpoint of a concentration-inhibition curve.

The target of test [1] is His-tagged human recombinant kinase full-length Akt1 (Homo sapiens (Human), UniProt P31749). The test can be described thus: Akt1 kinase assay (Akt1 TR-FRET assay, Biological Assay 1.0). Format: biochemical. The following applies: 10 μM ATP, 1 μM biotinylated peptide substrate, 60 min at 22° C. The source says:
Biological Assay 1.0: Akt1 Kinase Assay
Akt1 inhibitory activity of compounds of the present invention may be quantified employing the Akt1 TR-FRET assay as described in the following paragraphs. His-tagged human recombinant kinase full-length Akt1 expressed in insect cells was purchased form Invitrogen (part number PV 3599). As substrate for the kinase reaction the biotinylated peptide biotin-Ahx-KKLNRTLSFAEPG (C-terminus in amide form) was used which can be purchased e.g. from the company Biosynthan GmbH (Berlin-Buch, Germany).
(§1) For the assay 50 nl of a 100 fold concentrated solution of the test compound in DMSO was pipetted into a black low volume 384 well microtiter plate (Greiner Bio-One, Frickenhausen, Germany), 2 μl of a solution of Akt1 in assay buffer [50 mM TRIS/HCl pH 7.5, 5 mM MgCl2, 1 mM dithiothreitol, 0.02% (v/v) Triton X-100 (Sigma)] were added and the mixture was incubated for 15 min at 22° C. to allow prebinding of the test compounds to the enzyme before the start of the kinase reaction. Then the kinase reaction was started by the addition of 3 μl of a solution of adenosine-tri-phosphate (ATP, 16.7 μM=>final conc. in the 5 μl assay volume is 10 μM) and substrate (1.67 μM=>final conc. in the 5 μl assay volume is 1 μM) in assay buffer and the resulting mixture was incubated for a reaction time of 60 min at 22° C. The concentration of Akt1 in the assay was adjusted depending of the activity of the enzyme lot and was chosen appropriate to have the assay in the linear range, typical enzyme concentrations were in the range of about 0.05 ng/μl (final conc. in the 5 μl assay volume).
(§2) The reaction was stopped by the addition of 5 μl of a solution of HTRF detection reagents (200 nM streptavidine-XL665 [Cisbio] and 1.5 nM anti-phosho-Serine antibody [Millipore, cat. #35-001] and 0.75 nM LANCE Eu-W 1024 labeled anti-mouse IgG antibody [Perkin Elmer]) in an aqueous EDTA-solution (100 mM EDTA, 0.1% (w/v) bovine serum albumin in 50 mM HEPES/NaOH pH 7.5).
(§3) The resulting mixture was incubated 1 h at 22° C. to allow the binding of the biotinylated phosphorylated peptide to the streptavidine-XL665 and the antibodies. Subsequently the amount of phosphorylated substrate was evaluated by measurement of the resonance energy transfer from the anti-mouse-IgG-Eu-Chelate to the streptavidine-XL665. Therefore, the fluorescence emissions at 620 nm and 665 nm after excitation at 350 nm was measured in a HTRF reader, e.g. a Rubystar (BMG Labtechnologies, Offenburg, Germany) or a Viewlux (Perkin-Elmer). The ratio of the emissions at 665 nm and at […] was taken as the measure for the amount of phosphorylated substrate. The data were normalised (enzyme reaction without inhibitor=0% inhibition, all other assay components but no enzyme=100% inhibition).

The target of test [2] is His-tagged human recombinant kinase full-length Akt2 activated by PDK1 (Homo sapiens (Human), UniProt P31751). The experiment in a line: Akt2 kinase assay (Akt2 TR-FRET assay, Biological Assay 2.0). Format: biochemical. The following applies: 10 μM ATP, 1 μM biotinylated peptide substrate, 60 min at 22° C.
From the text: Biological Assay 2.0: Akt2 Kinase Assay
Akt2 inhibitory activity of compounds of the present invention was quantified employing the Akt2 TR-FRET assay as described in the following paragraphs.
His-tagged human recombinant kinase full-length Akt2 expressed in insect cells and activated by PDK1 was purchased form Invitrogen (part number PV 3975). As substrate for the kinase reaction the biotinylated peptide biotin-Ahx-KKLNRTLSFAEPG (C-terminus in amide form) was used which can be purchased e.g. from the company Biosynthan GmbH (Berlin-Buch, Germany).
as §1, with “Akt2” for “Akt1”, “0.2” for “0.05”
as §2
as §3, with “TR-FRET” for “HTRF”
In general terms: In TR-FRET formats the signal depends on donor and acceptor labels being close together.

Sequence of His-tagged human recombinant kinase full-length Akt1 (P31749 whole entry): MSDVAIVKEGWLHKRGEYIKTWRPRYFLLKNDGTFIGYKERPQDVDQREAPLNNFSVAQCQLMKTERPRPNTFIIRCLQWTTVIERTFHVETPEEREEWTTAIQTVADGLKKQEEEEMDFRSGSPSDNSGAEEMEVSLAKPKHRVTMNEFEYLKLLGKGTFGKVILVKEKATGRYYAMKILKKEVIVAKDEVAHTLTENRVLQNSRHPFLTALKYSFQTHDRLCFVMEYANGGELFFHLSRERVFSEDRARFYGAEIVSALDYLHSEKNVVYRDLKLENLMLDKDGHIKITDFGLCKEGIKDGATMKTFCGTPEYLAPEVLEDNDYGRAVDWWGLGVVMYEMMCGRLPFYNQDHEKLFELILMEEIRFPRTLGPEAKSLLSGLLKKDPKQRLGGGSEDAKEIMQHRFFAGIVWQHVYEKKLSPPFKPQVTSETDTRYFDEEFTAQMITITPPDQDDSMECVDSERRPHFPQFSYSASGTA
Sequence of His-tagged human recombinant kinase full-length Akt2 activated by PDK1 (P31751 whole entry): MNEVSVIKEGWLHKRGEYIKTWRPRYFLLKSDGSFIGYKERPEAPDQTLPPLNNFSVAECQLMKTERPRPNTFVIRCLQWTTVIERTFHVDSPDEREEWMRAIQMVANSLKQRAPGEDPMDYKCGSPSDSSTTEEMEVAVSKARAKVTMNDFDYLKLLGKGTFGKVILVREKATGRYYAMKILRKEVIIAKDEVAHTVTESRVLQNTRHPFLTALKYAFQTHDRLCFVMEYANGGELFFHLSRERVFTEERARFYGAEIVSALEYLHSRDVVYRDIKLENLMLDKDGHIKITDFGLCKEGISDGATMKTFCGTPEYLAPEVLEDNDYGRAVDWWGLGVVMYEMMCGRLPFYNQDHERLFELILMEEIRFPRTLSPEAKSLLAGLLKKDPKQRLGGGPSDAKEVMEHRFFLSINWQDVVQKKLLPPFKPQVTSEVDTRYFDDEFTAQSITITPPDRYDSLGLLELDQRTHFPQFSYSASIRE

Turning to `c1ccc(-c2cn3ccnc3nc2-c2ccc(CN3CCC(c4cnc5ccccc5n4)CC3)cc2)cc1` [Example 36.0, 2-{1-[4-(6-phenyl-imidazo[1,2-a]pyrimidin-7-yl)-benzyl]-piperidine-4-yl}-quinoxaline], the concentration for half-maximal inhibition (IC50) was 70 nM in test [1] and 589 nM in test [2].

For `c1ccc(-c2cn3ccnc3nc2-c2ccc(CN3CCC(c4nc5cccnc5[nH]4)CC3)cc2)cc1` [Example 7.0, 2-{1-[4-(6-phenyl-imidazo[1,2-a]pyrimidin-7-yl)-benzyl]-piperidin-4-yl}-3H-imidazo[4,5-b]pyridine], the IC50 worked out at 56 nM in test [1] and 607 nM in test [2].

For the compound `CCc1cnn2cc(-c3ccccc3)c(-c3ccc(CN4CC(c5n[nH]c(-c6cccc(C)n6)n5)C4)cc3)nc12` [Example 42.0, 3-ethyl-5-(4-{3-[5-(6-methyl-pyridin-2-yl)-1H-[1,2,4]triazol-3-yl]-azetidin-1-ylmethyl}-phenyl)-6-phenyl-pyrazolo[1,5-a]pyrimidine], the figures for the IC50 in test [1] and in test [2] were 5 nM and 19 nM, respectively.

Regarding `Cc1cn2cc(-c3ccccc3)c(-c3ccc(CN4CCC(c5cnc6ccccc6n5)CC4)cc3)nc2n1` [Example 37.0, 2-{1-[4-(2-methyl-6-phenyl-imidazo[1,2-a]pyrimidin-7-yl)benzyl]-piperidine-4-yl}-quinoxaline], the IC50 came to 77 nM in test [1] and 256 nM in test [2].

As to `COc1nn2cc(-c3c(F)cccc3F)c(-c3ccc(CN4CCC(c5n[nH]c(-c6cccc(C)n6)n5)CC4)cc3)nc2c1CO` [Example 63.2], the 50% inhibitory concentration (IC50) in test [1] was 18 nM; in test [2] it was 108 nM.

As to `Cc1cn2c(NC(C)C)c(-c3ccccc3)c(-c3ccc(CN4CC(c5n[nH]c(-c6ccccn6)n5)C4)cc3)nc2n1` [Example 64.0, isopropyl-(2-methyl-6-phenyl-7-{4-{3-[5-(pyridine-2-yl)-1H-[1,2,4]triazole-3-yl)-azetidine-1-ylmethyl]-phenyl}-imidazo[1,2-a]pyrimidin-5-yl)-amine], the 50% inhibitory concentration (IC50) in test [1] stood at 30 nM; in test [2] it was 39 nM.

With `Fc1ccc(-c2cn3nc(C4CC4)nc3nc2-c2ccc(CN3CCC(c4n[nH]c(-c5ccccn5)n4)CC3)cc2)cc1` [Example 51.1, 2-cyclopropyl-6-(4-fluorophenyl)-5-{4-[4-(5-pyridine-2-yl-1H-[1,2,4]triazole-3-yl)-piperidine-1-ylmethyl]-phenyl}-[1,2,4]triazolo[1,5-a]pyrimidine], the IC50 in test [1] is 32 nM; in test [2], 69 nM.

As to `CNc1c(-c2ccccc2)c(-c2ccc(CN3CC(c4n[nH]c(-c5ccccn5)n4)C3)cc2)nc2nc(-c3ccccn3)nn12` [Example 67.0], the figures for the half-maximal inhibitory concentration (IC50) in test [1] and in test [2] were 29 nM and 145 nM, respectively.

Regarding `Cc1nc2nc(-c3ccc(CN4CCC(c5n[nH]c(-c6cc(Cl)ccn6)n5)CC4)cc3)c(-c3ccc(F)cc3F)cn2n1` [Example 50.0, 5-(4-{4-[5-(4-chloropyridine-2-yl)-1H-[1,2,4]triazole-3-yl]-piperidine-1-ylmethyl}-phenyl) 6-(2,4-difluorophenyl)-2-methyl-[1,2,4]triazolo[1,5-a]pyrimidine], the IC50 in test [1] came to 22 nM; in test [2] it was 97 nM.

With `COc1nn2cc(-c3c(F)cccc3F)c(-c3ccc(CN4CCC(c5n[nH]c(-c6ccccn6)n5)CC4)cc3)nc2c1CO` [Example 63.3, (6-(2,6-difluorophenyl)-2-methoxy-5-{4-[4-(5-pyridine-2-yl-1H-[1,2,4]triazole-3-yl)-piperidine-1-ylmethyl]-phenyl}-pyrazolo[1,5-a]pyrimidin-3-yl)-methanol], the IC50 in test [1] came out at 10 nM; in test [2], 97 nM.

On to `FC(F)(F)c1ccc2nc(C3CCN(Cc4ccc(-c5nc6ccnn6cc5-c5ccccc5)cc4)CC3)[nH]c2c1` [Example 17.0, 6-phenyl-5-{4-[4-(6-trifluoromethyl-1H-benzimidazol-2-yl)piperidin-1-ylmethyl]-phenyl}-pyrazolo[1,5-a]pyrimidine], for which the 50% inhibitory concentration (IC50) in test [1] was 338 nM; in test [2] it was > 20000 nM.

In the case of `c1ccc(-c2cn3nc(C4CC4)nc3nc2-c2ccc(CN3CCC(c4cnc5ccccc5n4)CC3)cc2)cc1` [Example 40.0, 2-{1-[4-(2-cyclopropyl-6-phenyl-[1,2,4]triazolo[1,5-a]pyrimidin-5-yl)-benzyl]-piperidine-4-yl}-quinoxaline], the results for the IC50 in test [1] and in test [2] were 247 nM and 273 nM, respectively.

Take `Fc1cnc2nc(-c3ccc(CN4CC(c5nnc(-c6ccccn6)[nH]5)C4)cc3)c(-c3ccccc3)cn12` [Example 4.0, 3-fluoro-6-phenyl-7-(4-{[3-(5-pyridin-2-yl-1,2,4-triazol-3-yl)azetidin-1-yl]methyl}phenyl)imidazo[1,2-a]pyrimidine]: the IC50 in test [1] and in test [2] was < 50 nM in each case.

Consider `Cc1nc2nc(-c3ccc(CN4CCC(c5nc6cccnc6[nH]5)CC4)cc3)c(-c3ccccc3)cn2n1` [Example 23.0, 5-{4-[4-(3H-imidazo[4,5-b]pyridin-2-yl)-piperidin-1-ylmethyl]-phenyl}-2-methyl-6-phenyl-[1,2,4]triazolo[1,5-a]pyrimidine], for which the IC50 in test [1] came to 315 nM; in test [2] it was 759 nM.

With `Nc1ncnc2c1cnn2C1CCN(Cc2ccc(-c3nc4ccnn4cc3-c3ccccc3)cc2)CC1` [Example 19.0, 1-{1-[4-(6-phenyl-pyrazolo[1,5-a]pyrimidin-5-yl)-benzyl]-piperidin-4-yl}-1H-pyrazolo[3,4-d]pyrimidin-4-ylamine], the IC50 amounted to 25 nM in test [1] and 332 nM in test [2].

Regarding `Cc1nc2nc(-c3ccc(CN4CCC(c5n[nH]c(-c6ccccn6)n5)C4)cc3)c(-c3ccccc3)cn2n1` (racemic) [Example 24.0, (±)-2-methyl-6-phenyl-5-{4-[3-(5-pyridin-2-yl-1H-[1,2,4]triazol-3-yl)-pyrrolidin-1-ylmethyl]-phenyl}-[1,2,4]triazolo[1,5-a]pyrimidine], the IC50 in test [1] stood at 44 nM; in test [2], 435 nM.

Regarding `COC(=O)c1cnn2cc(-c3ccc(F)cc3F)c(-c3ccc(CN4CC(c5n[nH]c(-c6ccccn6)n5)C4)cc3)nc12` [Example 32.0, 6-(2,4-difluorophenyl)-5-(4-{3-[5-(pyridine-2-yl)-1H-[1,2,4]triazole-3-yl]-azetidine-1-ylmethyl}-phenyl)-pyrazolo[1,5-a]pyrimidine-3-carboxylic acid methyl ester], the 50% inhibitory concentration (IC50) in test [1] is 7 nM; in test [2] it was 214 nM.
